Test results as given in patent US12084472B2 (Ardelyx, Inc., priority 2015, dated 2024).

Each compound was assayed against T1, human TGR5 (Homo sapiens, UniProt Q8TDU6) (assay: Cell-based TGR5 assay (cAMP generation, HTRF)). Conditions: HEK293 cells stably transfected with human TGR5; cAMP by HTRF; 30 minutes at 37° C.; read-out: pEC50 Human TGR5 (converted).
T1 construct: expressed in transfected cells; host or cells: HEK293
T1 sequence (Q8TDU6 1-330): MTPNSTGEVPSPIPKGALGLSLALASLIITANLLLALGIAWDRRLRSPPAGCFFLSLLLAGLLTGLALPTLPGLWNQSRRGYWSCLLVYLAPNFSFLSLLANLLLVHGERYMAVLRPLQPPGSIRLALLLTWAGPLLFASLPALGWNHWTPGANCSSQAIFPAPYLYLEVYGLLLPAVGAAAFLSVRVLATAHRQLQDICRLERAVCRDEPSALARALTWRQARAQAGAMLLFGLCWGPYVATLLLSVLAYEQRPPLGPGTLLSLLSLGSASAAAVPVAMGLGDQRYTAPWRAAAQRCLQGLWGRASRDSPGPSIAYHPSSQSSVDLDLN
Summary of the method: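 First, compounds in 3-fold serial dilution were placed in HBSS with 10 mM HEPES pH 7.4 and 0.5 mM IBMX. Next, human TGR5-expressing HEK293 cells were added and incubated 30 min at 37° C. Finally, cAMP was detected by HTRF and pEC50 derived by logistic fitting.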

For CN(C[C@H](O)[C@@H](O)[C@H](O)[C@H](O)CO)C(=O)c1ccc(CSc2ccc(Cl)c(CNC3(c4cnccc4-c4ccccc4OC4CC4)CC3)c2)cc1 [Compound I-680, 4-[({4-chloro-3-[({1-[4-(2-cyclopropoxyphenyl)pyridin-3-yl]cyclopropyl}amino)methyl]phenyl}sulfanyl)methyl]-N-methyl-N-[(2S,3R,4R,5R)-2,3,4,5,6-pentahydroxyhexyl]benzamide], which EC50 is on record?
Its EC50 is 126 to 1000 nM.

How did the EC50 turn out when Cc1cc(COC2(c3cnccc3-c3ccccc3OC3CC3)CC2)c(Cl)cc1CCCCN(CCCCCO)C(=O)NC[C@H](O)[C@@H](O)[C@H](O)[C@H](O)CO [Compound I-118, 1-{4-[5-chloro-4-({1-[4-(2-cyclopropoxyphenyl)pyridin-3-yl]cyclopropoxy}methyl)-2-methylphenyl]butyl}-1-(5-hydroxypentyl)-3-[(2S,3R,4R,5R)-2,3,4,5,6-pentahydroxyhexyl]urea] was run?
The EC50 was less than 100 nM.

Which EC50 does the source give for O=C([C@@H](O)[C@@H](O)[C@H](O)[C@@H](O)CO)N(CCCCO)CCCSc1ccc(Cl)c(COC2(c3cnccc3-c3ccccc3OC3CC3)CC2)c1 [Compound I-519, (2S,3S,4R,5S)-N-(3-{[4-chloro-3-({1-[4-(2-cyclopropoxyphenyl)pyridin-3-yl]cyclopropoxy}methyl)phenyl]sulfanyl}propyl)-2,3,4,5,6-pentahydroxy-N-(4-hydroxybutyl)hexanamide] here?
Its EC50 is 126 to 1000 nM.

Which EC50 does the source give for CC(=O)NCCN(CCCSc1ccc(Cl)c(COC2(c3cnccc3-c3ccccc3OC3CC3)CC2)c1)C(=O)[C@@H](O)[C@@H](O)[C@H](O)[C@@H](O)CO [Compound I-595, (2S,3S,4R,5S)-N-(3-{[4-chloro-3-({1-[4-(2-cyclopropoxyphenyl)pyridin-3-yl]cyclopropoxy}methyl)phenyl]sulfanyl}propyl)-N-(2-acetamidoethyl)-2,3,4,5,6-pentahydroxyhexanamide] here?
The EC50 was 126 to 1000 nM.

With CC(CCCc1cc(Cl)c(COC2(c3cnccc3-c3ccccc3OC3CC3)CC2)cc1Cl)C(=O)N(C)C[C@H](O)[C@@H](O)[C@H](O)[C@H](O)CO (stereo partly drawn) [Compound I-140, 5-[2,5-dichloro-4-({1-[4-(2-cyclopropoxyphenyl)pyridin-3-yl]cyclopropoxy}methyl)phenyl]-N,2-dimethyl-N-[(2S,3R,4R,5R)-2,3,4,5,6-pentahydroxyhexyl]pentanamide] as the compound, how does the EC50 read?
Its EC50 is less than 100 nM.

How did the EC50 turn out when COCCN(CCCCNC(=O)NC[C@H](O)[C@@H](O)[C@H](O)[C@H](O)CO)S(=O)(=O)c1ccc(Cl)c(COC2(c3cnccc3-c3ccccc3OC3CC3)CC2)c1 (stereo in doubt) [Compound I-407, 1-{4-[N-(2-methoxyethyl)4-chloro-3-({1-[4-(2-cyclopropoxyphenyl)pyridin-3-yl]cyclopropoxy}methyl)benzenesulfonamido]butyl}-3-[(2S,3R,4R,5R)-2,3,4,5,6-pentahydroxyhexyl]urea] was run?
Its EC50 is less than 100 nM.

CC(CCCC(=O)N(CCO)C[C@@H](O)[C@H](O)[C@@H](O)[C@@H](O)CO)c1ccc(Cl)c(CNC2(c3cnccc3-c3ccccc3OC3CC3)CC2)c1 (stereo partly drawn) [Compound I-331, 5-{4-chloro-3-[({1-[4-(2-cyclopropoxyphenyl)pyridin-3-yl]cyclopropyl}amino)methyl]phenyl}-N-(2-hydroxyethyl)-N-[(2R,3S,4S,5S)-2,3,4,5,6-pentahydroxyhexyl]hexanamide] was tested. Which EC50 did it give?
Its EC50 is less than 100 nM.

CN(C)CCN(C[C@H](O)[C@@H](O)[C@H](O)[C@H](O)CO)C(=O)CCCCc1cc(Cl)c(COC2(c3cnccc3-c3ccccc3OC3CC3)CC2)cc1Cl [Compound I-207, 5-[2,5-dichloro-4-({1-[4-(2-cyclopropoxyphenyl)pyridin-3-yl]cyclopropoxy}methyl)phenyl)-N-[2-(dimethylamino)ethyl]-N-[(2S,3R,4R,5R)-2,3,4,5,6-pentahydroxyhexyl]pentanamide] was tested. Which EC50 did it give?
Its EC50 is 126 to 1000 nM.

With O=C([C@H](O)[C@@H](O)[C@H](O)[C@H](O)CO)N(CCCCO)CCCCc1cc(Cl)c(COC2(c3cnccc3-c3ccccc3OC3CC3)CC2)cc1Cl [Compound I-81, (2R,3S,4R,5R)-N-(4-(2,5-dichloro-4-((1-(4-(2-cyclopropoxyphenyl)pyridin-3-yl)cyclopropoxy)methyl)phenyl)butyl)-2,3,4,5,6-pentahydroxy-N-(4-hydroxybutyl)hexanamide] as the compound, how does the EC50 read?
The EC50 was less than 100 nM.

With CC(CCCC(=O)N(CCS(=O)(=O)N1CCOCC1)C[C@H](O)[C@@H](O)[C@H](O)[C@H](O)CO)c1ccc(Cl)c(CNC2(c3cnccc3-c3ccccc3OC3CC3)CC2)c1 (stereo partly drawn) [Compound I-262, 5-(4-chloro-3-(((1-(4-(2-cyclopropoxyphenyl)pyridin-3-yl)cyclopropyl)amino)methyl)phenyl)-N-(2-(morpholinosulfonyl)ethyl)-N-((2S,3R,4R,5R)-2,3,4,5,6-pentahydroxyhexyl)hexanamide] as the compound, how does the EC50 read?
Its EC50 is less than 100 nM.

With COc1ccccc1-c1ccncc1C1(NCc2cc(Cl)c(CCCCC(=O)N(C)C[C@H](O)[C@@H](O)[C@H](O)[C@H](O)CO)cc2Cl)CC1 [Compound I-134, 5-{2,5-dichloro-4-[({1-[4-(2-methoxyphenyl)pyridin-3-yl]cyclopropyl}amino)methyl]phenyl}-N-methyl-N-[(2S,3R,4R,5R)-2,3,4,5,6-pentahydroxyhexyl]pentanamide] as the compound, how does the EC50 read?
Its EC50 is 126 to 1000 nM.

Which EC50 does the source give for Cc1ccc(SCCCCC(=O)N(C)C[C@H](O)[C@@H](O)[C@H](O)[C@H](O)CO)nc1COC1(c2cnccc2-c2ccccc2OC2CC2)CC1 [Compound I-658, 5-{[6-({1-[4-(2-cyclopropoxyphenyl)pyridin-3-yl]cyclopropoxy}methyl)-5-methylpyridin-2-yl]sulfanyl}-N-methyl-N-[(2S,3R,4R,5R)-2,3,4,5,6-pentahydroxyhexyl]pentanamide] here?
The EC50 was 1260 to 10000 nM.

For Cc1ccc(SCCCCC(=O)N(C)C[C@H](O)[C@@H](O)[C@H](O)[C@H](O)CO)nc1CNC1(c2cnccc2-c2ccccc2OC2CC2)CC1 [Compound I-495, 5-([6-[([1-[4-(2-Cyclopropoxyphenyl)pyridin-3-yl]cyclopropyl]amino)methyl]-5-methylpyridin-2-yl]sulfanyl)-N-methyl-N-[(2S,3R,4R,5R)-2,3,4,5,6-pentahydroxyhexyl]pentanamide], which EC50 is on record?
The EC50 was 126 to 1000 nM.

How did the EC50 turn out when O=C(CCCCc1cc(Cl)c(COC2(c3cnccc3-c3ccccc3OC3CC3)CC2)cc1Cl)NC[C@@H]1O[C@H](C(=O)O)[C@@H](O)[C@H](O)[C@H]1O [Compound I-93, (2S,3S,4R,5R,6S)-6-((5-(2,5-dichloro-4-((1-(4-(2-cyclopropoxyphenyl)pyridin-3-yl)cyclopropoxy)methyl)phenyl)pentanamido)methyl)-3,4,5-trihydroxytetrahydro-2H-pyran-2-carboxylic acid] was run?
The EC50 was less than 100 nM.

How did the EC50 turn out when O=C(NCCCCC[S+]([O-])c1ccc(Cl)c(COC2(c3cnccc3-c3ccccc3OC3CC3)CC2)c1)N[C@@H](CO)[C@@H](O)[C@H](O)[C@H](O)CO (stereo partly drawn) [Compound I-642, 1-{5-[4-chloro-3-({1-[4-(2-cyclopropoxyphenyl)pyridin-3-yl]cyclopropoxy}methyl)benzenesulfinyl]pentyl}-3-[(2S,3R,4S,5R)-1,3,4,5,6-pentahydroxyhexan-2-yl]urea] was run?
The EC50 was less than 100 nM.

For Fc1ccccc1-c1ccncc1C1(OCc2cc(Cl)ccc2Cl)CC1 [Compound I-50, 3-{1-[(2,5-dichlorophenyl)methoxy]cyclopropyl}-4-(2-fluorophenyl)pyridine], which EC50 is on record?
The EC50 was 1260 to 10000 nM.

With CC(OCc1cc(Cl)ccc1Cl)c1cnccc1-c1ccccc1OC1CC1 (stereo not drawn) [Compound I-745, 4-(2-cyclopropoxyphenyl)-3-(1-((2,5-dichlorobenzyl)oxy)ethyl)pyridine] as the compound, how does the EC50 read?
Its EC50 is 126 to 1000 nM.

CS(=O)(=O)CCCN(CCCCSc1ccc(Cl)c(CNC2(c3cnccc3-c3ccccc3OC3CC3)CC2)c1)C(=O)[C@@H](O)[C@@H](O)[C@H](O)[C@@H](O)CO [Compound I-532, (2S,3S,4R,5S)-N-[4-({4-chloro-3-[({1-[4-(2-cyclopropoxyphenyl)pyridin-3-yl]cyclopropyl}amino)methyl]phenyl}sulfanyl)butyl]-2,3,4,5,6-pentahydroxy-N-(3-methanesulfonylpropyl) hexanamide] was tested. Which EC50 did it give?
The EC50 was less than 100 nM.

How did the EC50 turn out when Cc1ccc(C(C)CCCC(=O)N(CC(N)=O)C[C@H](O)[C@@H](O)[C@H](O)[C@H](O)CO)cc1CNC1(c2cnccc2-c2ccccc2OC2CC2)CC1 (stereo partly drawn) [Compound I-356, N-(carbamoylmethyl)-5-{3-[({1-[4-(2-cyclopropoxyphenyl)pyridin-3-yl]cyclopropyl}amino)methyl]-4-methylphenyl}-N-[(2S,3R,4R,5R)-2,3,4,5,6-pentahydroxyhexyl]hexanamide] was run?
The EC50 was less than 100 nM.

How did the EC50 turn out when CN(CCCCCSc1ccc(Cl)c(CNC2(c3cnccc3-c3ccccc3OC3CC3)CC2)c1)C(=O)[C@@H](O)[C@@H](O)[C@H](O)[C@@H](O)CO [Compound I-507, (2S,3S,4R,5S)-N-[5-({4-chloro-3-[({11-[4-(2-cyclopropoxyphenyl)pyridin-3-yl]cyclopropyl}amino)methyl]phenyl}sulfanyl)pentyl]-2,3,4,5,6-pentahydroxy-N-methylhexanamide] was run?
The EC50 was less than 100 nM.

How did the EC50 turn out when O=C(NCC(O)C(O)C(O)C(O)CO)N[C@@H](CCCNS(=O)(=O)c1ccc(Cl)c(COC2(c3cnccc3-c3ccccc3OC3CC3)CC2)c1)C(=O)O (stereo partly drawn) [Compound I-480, (2S)-5-[4-chloro-3-({1-[4-(2-cyclopropoxyphenyl)pyridin-3-yl]cyclopropoxy}methyl)benzenesulfonamido]-2-{[(2,3,4,5,6-pentahydroxyhexyl)carbamoyl]amino}pentanoic acid] was run?
The EC50 was less than 100 nM.
